Among the data in patent US20190388425A1, “SUBSTITUTED IMIDAZOPYRIDINPYRIMIDINES” (Bayer Pharma Aktiengesellschaft, priority 2017, published 2019) are IC50 values, retold here.

SMILES strings stand for the structures.

In the test the target is T1, human full-length MKNK1 (Homo sapiens, UniProt Q9BUB5, T385D).
T1 construct: GST (N); purchased Carna Biosciences 02-145; host or cells: insect cells (baculovirus expression system)
T1 sequence (Q9BUB5 1-424 isoform Q9BUB5-2 T344D): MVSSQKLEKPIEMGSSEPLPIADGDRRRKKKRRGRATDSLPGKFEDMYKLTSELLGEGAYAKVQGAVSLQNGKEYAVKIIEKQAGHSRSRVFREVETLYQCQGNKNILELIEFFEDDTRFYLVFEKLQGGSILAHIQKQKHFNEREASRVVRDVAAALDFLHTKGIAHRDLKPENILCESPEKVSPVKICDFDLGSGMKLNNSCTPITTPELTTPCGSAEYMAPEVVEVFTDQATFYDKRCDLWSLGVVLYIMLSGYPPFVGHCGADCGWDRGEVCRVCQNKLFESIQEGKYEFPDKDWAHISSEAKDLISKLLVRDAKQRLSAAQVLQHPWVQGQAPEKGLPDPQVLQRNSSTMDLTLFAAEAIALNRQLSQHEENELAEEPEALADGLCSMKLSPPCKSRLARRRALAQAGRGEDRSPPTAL
Nature of the test: MKNK1 kinase high ATP assay (TR-FRET). The test is classed as biochemical. Conditions: TR-FRET, 2 mM ATP (high ATP), 15 min preincubation with enzyme, 30 min reaction at 22° C.; read-out: MKNK1 IC50. The gist of the method:
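Full-length human MKNK1 (T385D) preincubated 15 min at 22 °C with compound in HEPES pH 7.5/MgCl2/DTT buffer; reaction with 2 mM ATP (final) and 0.06 μM biotinylated peptide (final), 30 min at 22 °C.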
A general note: In TR-FRET formats the signal depends on donor and acceptor labels being close together.
As to `Cc1cc(Nc2ncnc3sc4c(c23)CC[C@H](C(N)=O)C4)c(=O)n2c1C(=O)NC21CCCCC1` [Example 17, (7S)-4-[(8′-Methyl-1′,5′-dioxo-1′,5′-dihydro-2′H-spiro[cyclohexane-1,3′-imidazo[1,5-a]pyridin]-6′-yl)amino]-5,6,7,8-tetrahydro[1]benzothieno[2,3-d]pyrimidine-7-carboxamide], the IC50 amounted to 0.5 nM.

Turning to `O=C1NC2(CCC2)n2c1c(Cl)cc(Nc1ncnc3sc4c(c13)CC[C@H](C(=O)N1C[C@H]3C[C@@H]1CO3)C4)c2=O` [Example 118, 8′-chloro-6′-({(7S)-7-[(1R,4R)-2-oxa-5-azabicyclo[2.2.1]heptan-5-ylcarbonyl]-5,6,7,8-tetrahydro[1]benzothieno[2,3-d]pyrimidin-4-yl}amino)-2′H-spiro[cyclobutane-1,3′-imidazo[1,5-a]pyridine]-1′,5′-dione], the IC50 is 0.4 nM.

`Cc1cc(Nc2ncnc3sc4c(c23)CC[C@H](C(=O)O)C4)c(=O)n2c1C(=O)NC21CCC1` [Example 16, (7S)-4-[(8′-Methyl-1′,5′-dioxo-1′,5′-dihydro-2′H-spiro[cyclobutane-1,3′-imidazo[1,5-a]pyridin]-6′-yl)amino]-5,6,7,8-tetrahydro[1]benzothieno[2,3-d]pyrimidine-7-carboxylic acid]: the IC50 was 3.9 nM.

Turning to `O=C1NC2(CCCC2)n2c1c(Cl)cc(Nc1ncnc3sc4c(c13)CC[C@H](C(=O)N1CCC1)C4)c2=O` [Example 87, 6′-{[(7S)-7-(Azetidine-1-carbonyl)-5,6,7,8-tetrahydro[1]benzothieno[2,3-d]pyrimidin-4-yl]amino}-8′-chloro-2′H-spiro[cyclopentane-1,3′-imidazo[1,5-a]pyridine]-1′,5′-dione], the IC50 amounted to 0.2 nM.

In the case of `Cc1cc(Nc2ncnc3sc4c(c23)CC[C@H](C(=O)N2CC[C@H](N(C)C)C2)C4)c(=O)n2c1C(=O)NC21CCC1` [Example 24, 6′-{[(7S)-7-{[(3S)-3-(Dimethylamino)pyrrolidin-1-yl]carbonyl}-5,6,7,8-tetrahydro[1]benzothieno[2,3-d]pyrimidin-4-yl]amino}-8′-methyl-2′H-spiro[cyclobutane-1,3′-imidazo[1,5-a]pyridine]-1′,5′-dione], the 50% inhibitory concentration (IC50) turned out to be 0.2 nM.

Take `Cc1cc(Nc2ncnc3sc4c(c23)CC[C@H](C(=O)N2CCN(C)[C@H](C)C2)C4)c(=O)n2c1C(=O)N[C@]21CC[C@@](O)(C(F)(F)F)CC1` [Example 83, (cis)-6′-{[(7S)-7-{[(3R)-3,4-Dimethylpiperazin-1-yl]carbonyl}-5,6,7,8-tetrahydro[1]benzothieno[2,3-d]pyrimidin-4-yl]amino}-4-hydroxy-8′-methyl-4-(trifluoromethyl)-2′H-spiro[cyclohexane-1,3′-imidazo[1,5-a]pyridine]-1′,5′-dione]: the IC50 was 1.5 nM.

For `Cc1cc(Nc2ncnc3sc4c(c23)CC[C@H](C(=O)N(C)C)C4)c(=O)n2c1C(=O)NC21CCCCC1` [Example 2, (7S)—N, N-Dimethyl-4-[(8′-methyl-1′,5′-dioxo-1′,5′-dihydro-2′H-spiro[cyclohexane-1,3′-imidazo[1,5-a]pyridin]-6′-yl)amino]-5,6,7,8-tetrahydro[1]benzothieno[2,3-d]pyrimidine-7-carboxamide], the half-maximal inhibitory concentration (IC50) was found to be 0.2 nM.

With `Cc1cc(Nc2ncnc3sc4c(c23)CC[C@H](C(=O)O)C4)c(=O)n2c1C(=O)N[C@]21CC[C@@](O)(C(F)(F)F)CC1` [Example 59, (7S)-4-{[(cis)-4-Hydroxy-8′-methyl-1′,5′-dioxo-4-(trifluoromethyl)-1′,5′-dihydro-2′H-spiro[cyclohexane-1,3′-imidazo[1,5-a]pyridin]-6′-yl]amino}-5,6,7,8-tetrahydro[1]benzothieno[2,3-d]pyrimidine-7-carboxylic acid], the IC50 was determined as 37.9 nM.

The term IC50 denotes the concentration that gives 50% inhibition.
